# Test results: patent US20090148535A1, “METHOD FOR TREATING CANCER USING INTERFERENCE RNA” (MINERVA BIOTECHNOLOGIES CORPORATION, priority 2007, published 2009)
# Columns and labels:
# Assay type in all cases: cell-based
# BTRes1 cells [1] = experiment: Cell death of BTRes1 cells with chemotherapeutic agents with or without Anti-MUC1* Fab (Trypan Blue exclusion); settings: for resistance of BTRes1 and restored killing effect with Anti-MUC1* Fab: 10 ug/ml Anti-MUC1* Fab
# Procedure: (§1) BT474, BTRes1 and BTRes2 cells were plated at 10,000 cells/well in 96 well plates, 4 wells/condition. The following day, Cyclophosphamide, Taxol, or Doxorubicin were added in varying concentrations, alone, or in the presence of 10 ug/ml Anti-MUC1* Fab or 10 ug/ml Control Fab. Cells were left untreated, or treated with either Fab alone as controls. Two days later, cells were resuspended in 50 ul trypsin, and counted in the presence of trypan blue. Percent cell death was calculated as percent trypan blue uptake.
# BT474 cells = experiment: Cell death of BT474 cells with chemotherapeutic agents (Trypan Blue exclusion); settings: 10 nM Taxol, two days post-treatment
# Procedure: as §1
# BTRes1 cells [2] = experiment: Growth of siRNA-transfected BTRes1 cells in the presence of HERCEPTIN; settings: HERCEPTIN 0-1 ug/ml, cell counts three days post-treatment
# Procedure: Percent Normalized Growth was then calculated: Percent Normalized Growth=[(Day 3 cell counts with Antibody Added )−(Zero-day cell counts)]/[(Day 3 Cell counts without antibody added)−(Zero-day cell counts)]×100%
# (§2) BT474 cells were transfected in triplicate with control siRNA (Santa Cruz Biotechnologies; sc-37007), and BTRes1 cells were transfected in triplicate with control or MUC1-specific siRNA (Santa Cruz Biotechnologies sc-35985). One microliter of 10 uM siRNA was added to 100 ul of OptiMEM medium (Invitrogen 22600134). Six microliters of HiPerfect reagent (Qiagen 301704) were then added to each tube. After vortexing, tubes were incubated at room temperature for 20 minutes. Meanwhile, cells were trypsinized, pelleted and resuspended in fresh RPMI without HERCEPTIN. 5×10^5 cells in 2.3 ml RPMI were combined with the OptiMEM with siRNA/HiPerfect complexes and added to a well of a 6 well plate. Two days later, cells were re-transfected by the same method, and plated in 96 well plates, at 10,000 cells/well, five wells/condition. Leftover cells were plated in six well plates. […] The following day, cells plated in 6 well plates were harvested and pelleted for Western analysis to evaluate siRNA efficacy. Three days later, cells were counted, and Percent Normalized Growth was calculated.
# MUC1* = experiment: Western blot of MUC1* after siRNA transfection; settings: Western Blot after transient siRNA transfection
# Procedure: as §2
compound,measurement,setting,value
"O=P1(N(CCCl)CCCl)NCCCO1 (stereo not shown) [Cyclophospharnide, Cyclophosphamide]",resistance of BTRes1 and restored killing effect with Anti-MUC1* Fab,BTRes1 cells [1]; 10 uM drug,also observed
COc1cccc2c1C(=O)c1c(O)c3c(c(O)c1C2=O)C[C@@](O)(C(=O)CO)C[C@@H]3O[C@H]1C[C@H](N)[C@H](O)[C@H](C)O1 [Doxorubicin],resistance of BTRes1 and restored killing effect with Anti-MUC1* Fab,BTRes1 cells [1]; 1 uM drug,also observed
CC(=O)O[C@H]1C(=O)[C@@]2(C)[C@H]([C@H](OC(=O)c3ccccc3)[C@]3(O)C[C@H](OC(=O)[C@H](O)[C@@H](NC(=O)c4ccccc4)c4ccccc4)C(C)=C1C3(C)C)[C@]1(OC(C)=O)CO[C@@H]1C[C@@H]2O [Taxol],cell killing,BT474 cells,effectively killed
same,cell killing,"BTRes1 cells [1]; BTRes1, 10 nM Taxol alone, two days, compared to untreated cells",essentially unaffected
same,killing effect with Anti-MUC1* Fab,"BTRes1 cells [1]; BTRes1, 10 nM Taxol and 10 ug/ml Anti-MUC1* Fab",restored
MUC1 siRNA: MUC1-specific siRNA (Santa Cruz Biotechnologies sc-35985) (GCAGCCTCTCGATATAACCATCTCGAGGGGTTATATCGAGAGGCTGC; expressed or natural sequence),growth in the presence of HERCEPTIN of cells transfected with the siRNA,BTRes1 cells [2],reduced
same,MUC1* level,MUC1*,Down regulation
